Tests used:
recombinant BRD4 BD1 = target: T1, recombinant BRD4 BD1 (Homo sapiens, UniProt O60885); experiment: Competitive fluorescence-polarization (FP) binding assay, BRD4 BD1; conditions: FAM labeled probe 1.5 nM, protein 10 nM, pH 6.5
T1 construct: recombinant BRD4 BD1 and BRD4 BD2 proteins
Procedure: (§1) Fluorescence Polarization (FP) competitive binding studies were carried out using a FAM labeled fluorescent probe (ZBA248 or BRD-1F) to determine binding affinities of representative Compounds of the Disclosure for recombinant BRD4 BD1 and BRD4 BD2 proteins. For example, equilibrium dissociation constants (Kd) values of ZBA248 to these six proteins were determined from protein saturation experiments by monitoring the total fluorescence polarization of mixtures composed with the fluorescent probe at a fixed concentration and proteins with increasing concentrations up to full saturation. Serial dilutions of testing protein were mixed with ZBA248 to a final volume of 200 μl in the assay buffer. In order to achieve large dynamic rages, particularly for BD1 bromodomains, 100 mM phosphate buffer (pH=6.5, 0.01% Triton X-100 (Sigma, 282103) being added right before assays) was used as the assay buffer. Final ZBA248 concentration was 1.5 nM for all proteins. Plates were incubated at room temperature for 30 minutes with gentle shaking to assure equilibrium. FP values in millipolarization units (mP) were measured using the Infinite M-1000 plate reader (Tecan U.S., Research Triangle Park, N.C.) in Microfluor 1 96-well, black, round-bottom plates (Thermo Scientific, Waltham, Mass.) at an excitation wavelength of 485 nm and an emission wavelength of 530 nm. Kd values of ZBA248 were calculated by fitting the sigmoidal dose-dependent FP increases as a function of protein concentrations using Graphpad Prism 6.0 software (Graphpad Software, San Diego, Calif.).
(§2) The IC50 and Ki values of representative Compounds of the Disclosure were determined in a competitive binding experiment as described above. Mixtures of 10 μl of the tested compounds in assay buffer with 40% Ethylene Glycol and 190 μl of preincubated protein/probe complex solution in the assay buffer (100 mM potassium phosphate, pH 6.5, 0.01% Triton X-100) were added into assay plates which were incubated at room temperature for 30 minutes with gentle shaking. Final concentrations of proteins were 10 and 6 nM in assays for BD1 and BD2 of BRD4, respectively. Final probe concentration is 1.5 nM in all assays. Negative controls containing protein/probe complex only (equivalent to 0% inhibition), and positive controls containing only free probes (equivalent to 100% inhibition), were included in each assay plate. FP values were measured as described above. IC50 values were determined by nonlinear regression fitting of the competition curves. Instead of being calculated from IC50 values as described before, Ki values of competitive inhibitors were obtained directly by nonlinear regression fitting as well, based upon the Kd values of the probe to different proteins, and concentrations of the proteins and probes in the competitive assays (Wang, FEBS Lett. 360; 111 (1995); Zhang et al., Analytical Biochemistry, 331; 138 (2004)).
(§3) Binding affinities of representative Compounds of the Disclosure to BRD4 BD1 and BRD4 BD2 proteins in competitive, fluorescence-polarization assays are presented in Table 2.

recombinant BRD4 BD2 = target: T2, recombinant BRD4 BD2 (Homo sapiens, UniProt O60885); experiment: Competitive fluorescence-polarization (FP) binding assay, BRD4 BD2; conditions: FAM labeled probe 1.5 nM, protein 6 nM, pH 6.5
T2 construct: recombinant BRD4 BD1 and BRD4 BD2 proteins
Procedure: as §1, §2, §3

LNCaP cells = experiment: Cell growth inhibition, 4-day proliferation assay, LNCaP; format: cell-based; conditions: Homo sapiens, 96 h, prostate cancer cell line, 4 days treatment
Procedure: (§4) The effect of representative Compounds of the Disclosure on cell viability was determined in a 4-day proliferation assay. Cells were maintained in the appropriate culture medium with 10% FBS at 37° C. and an atmosphere of 5% CO2. All the cell lines were used within three months of thawing fresh vials.
(§5) Cells were seeded in 96-well flat bottom (Corning COSTAR, Corning, NY, cat#3595) or white opaque cell culture plates (BD Falcon, cat#353296) at a density of 3,000-10,000 cells/well in 75 μl of culture medium. Compounds were serially diluted in the appropriate medium, and 75 μl of the diluted compounds were added to the appropriate wells of the cell plate. After the addition of compounds, the cells were incubated at 37° C. in an atmosphere of 5% CO2 for 4 days. Cell viability was determined using the CellTiter-Glo® Luminescent Cell Viability Assay Kit (Promega, Madison, Wis.) for RS4-11 and MV4-11 cells and WST (2-(2-methoxy-4-nitrophenyl)-3-(4-nitrophenyl)-5-(2,4-disulfophenyl)-2H-tetrazolium, monosodium salt) Cell Counting-8 Kit (Dojindo Molecular Technologies, Inc., Rockville, Md.) for MDA-MB-231 cells according to the manufacturers' instructions.
(§6) Cell growth inhibition of representative Compounds of the Disclosure in representative breast cancer (MDA-MB-231), acute leukemia (MV4-11), and prostate cancer cell lines (LNCaP), as determined by a WST assay, are presented in Table 3. Cells were treated with each inhibitor for 4 days.

MDA-MB-231 cells = experiment: Cell growth inhibition, 4-day proliferation assay (WST), MDA-MB-231; format: cell-based; conditions: Homo sapiens, MDA-MB-231, 96 h, breast cancer cell line, 4 days treatment
Procedure: as §4, §5
For WST assay (MDA-MB-231 cells), WST-8 reagent was added to each well at a final concentration of 10% (v/v), and then the plates were incubated at 37° C. for 1-2 hours for color development. The absorbance was measured at 450 nm using a SPECTRAmax PLUS plate reader (Molecular Devices, Sunnyvale, Calif.). The readings were normalized to the DMSO-treated cells and the half maximal inhibitory concentration (IC50) was calculated by nonlinear regression (four parameters sigmoid fitted with variable slope, least squares fit, and no constraint) analysis using the GraphPad Prism 5 software (GraphPad Software, La Jolla, Calif.).
as §6

MV4-11 cells = experiment: Cell growth inhibition, 4-day proliferation assay, MV4-11; format: cell-based; conditions: Homo sapiens, MV4-11, 96 h, acute leukemia cell line, 4 days treatment
Procedure: as §4, §5
For CellTiter-Glo assay (RS4-11 and MV4-11 cells), 100 μl of CellTiter-Glo® Reagent was added to each well, and then the plates were incubated at room temperature for 10-20 minutes. The luminescent signal was measured using a Tecan Infinite M1000 multimode microplate reader (Tecan, Morrisville, N.C.). The readings were normalized to the DMSO-treated cells and the IC50 was calculated by nonlinear regression (four parameters sigmoid fitted with variable slope, least squares fit, and no constraint) analysis using the GraphPad Prism 5 software.
as §6

| SMILES | IC50 (recombinant BRD4 BD1) [µM] | IC50 (recombinant BRD4 BD2) [µM] | IC50 (LNCaP cells) [µM] | IC50 (MDA-MB-231 cells) [µM] | IC50 (MV4-11 cells) [µM] |
| --- | --- | --- | --- | --- | --- |
| COc1cc2c(cc1Br)[nH]c1ncnc(Nc3cc(C4CC4)nn3C)c12 [Cpd. No. 1, 7-Bromo-N-(3-cyclopropyl-1-methyl-1H-pyrazol-5-yl)-6-methoxy-9H-pyrimido[4,5-b]indol-4-amine] | > 1 | > 1 | – | – | – |
| COc1cc2c(cc1-c1c(C)noc1C)[nH]c1nc(N)nc(Nc3cc(C4CC4)nn3C(C)C)c12 [Cpd. No. 2, N4-(3-cyclopropyl-1-isopropyl-1H-pyrazol-5-yl)-7-(3,5-dimethylisoxazol-4-yl)-6-methoxy-9H-pyrimido[4,5-b]indole-2,4-diamine] | 0.001 | 0.0021 | 0.003 | 0.046 | – |
| COc1cc2c(cc1-c1c(C)noc1C)[nH]c1nc(N)nc(Nc3c4c(nn3C)CCC4)c12 [Cpd. No. 3, 7-(3,5-dimethylisoxazol-4-yl)-6-methoxy-N4-(2-methyl-2,4,5,6-tetrahydrocyclopenta[c]pyrazol-3-yl)-9H-pyrimido[4,5-b]indole-2,4-diamine] | 0.0035 | 0.0016 | 0.067 | 0.018 | – |
| CCn1nc2c(c1Nc1nc(N)nc3[nH]c4cc(-c5c(C)noc5C)c(OC)cc4c13)CCC2 [Cpd. No. 4, 7-(3,5-dimethylisoxazol-4-yl)-N4-(2-ethyl-2,4,5,6-tetrahydrocyclopenta[c]pyrazol-3-yl)-6-methoxy-9H-pyrimido[4,5-b]indole-2,4-diamine] | 0.001 | 0.0025 | 0.02 | 0.006 | – |
| COCc1nc(Nc2c3c(nn2C(C)C)CCC3)c2c(n1)[nH]c1cc(-c3c(C)noc3C)c(OC)cc12 [Cpd. No. 6, 7-(3,5-dimethylisoxazol-4-yl)-N-(2-isopropyl-2,4,5,6-tetrahydrocyclopenta[c]pyrazol-3-yl)-6-methoxy-2-(methoxymethyl)-9H-pyrimido[4,5-b]indol-4-amine] | 0.0036 | 0.0029 | – | 0.006 | 0.004 |
| COCc1nc(Nc2cc(C3CC3)nn2C(C)C)c2c(n1)[nH]c1cc(-c3c(C)noc3C)c(OC)cc12 [Cpd. No. 7, N-(3-cyclopropyl-1-isopropyl-1H-pyrazol-5-yl)-7-(3,5-dimethylisoxazol-4-yl)-6-methoxy-2-(methoxymethyl)-9H-pyrimido[4,5-b]indol-4-amine] | 0.0039 | 0.0021 | – | 0.006 | 0.003 |
| COc1cc2c(cc1-n1c(C)nnc1C)[nH]c1ncnc(Nc3cc(C4CC4)nn3C)c12 [Cpd. No. 8, N-(3-Cyclopropyl-1-methyl-1H-pyrazol-5-yl)-7-(3,5-dimethyl-4H-1,2,4-triazol-4-yl)-6-methoxy-9H-pyrimido[4,5-b]indol-4-amine] | 0.652 | 1.3 | – | > 1 | – |
| COc1cc2c(cc1-c1c(C)noc1C)[nH]c1nc(C)nc(Nc3cc(C4CC4)nn3-c3ccncc3)c12 [Cpd. No. 9, N-(3-Cyclopropyl-1-(pyridin-4-yl)-1H-pyrazol-5-yl)-7-(3,5-dimethylisoxazol-4-yl)-6-methoxy-2-methyl-9H-pyrimido[4,5-b]indol-4-amine] | 0.0226 | 0.019 | – | 0.066 | – |
| COc1cc2c(cc1-c1c(C)noc1C)[nH]c1nc(C)nc(Nc3cc(C4CC4)nn3-c3ccc(C(=O)O)cc3)c12 [Cpd. No. 10, 4-(3-Cyclopropyl-5-((7-(3,5-dimethylisoxazol-4-yl)-6-methoxy-2-methyl-9H-pyrimido[4,5-b]indol-4-yl)amino)-1H-pyrazol-1-yl)benzoic acid] | 0.054 | 0.0752 | – | – | – |
| COc1cc2c(cc1-c1c(C)n[nH]c1C)[nH]c1ncnc(Nc3cc(C4CC4)nn3C)c12 [Cpd. No. 11, N-(3-cyclopropyl-1-methyl-1H-pyrazol-5-yl)-7-(3,5-dimethyl-1H-pyrazol-4-yl)-6-methoxy-9H-pyrimido[4,5-b]indol-4-amine] | 0.103 | 0.0915 | – | – | – |
| COc1cc2c(cc1-c1c(C)noc1C)[nH]c1nc(C)nc(Nc3cc(C4CC4)nn3-c3cnn(C)c3)c12 [Cpd. No. 12, N-(3-Cyclopropyl-1′-methyl-1′H-[1,4′-bipyrazol]-5-yl)-7-(3,5-dimethylisoxazol-4-yl)-6-methoxy-2-methyl-9H-pyrimido[4,5-b]indol-4-amine] | 0.0182 | 0.0121 | – | – | – |
| COc1cc2c(cc1-c1c(C)noc1C)[nH]c1nc(C)nc(Nc3cc(C4CC4)n(-c4cnn(C)c4)n3)c12 [Cpd. No. 13, N-(5-Cyclopropyl-1′-methyl-1′H-[1,4′-bipyrazol]-3-yl)-7-(3,5-dimethylisoxazol-4-yl)-6-methoxy-2-methyl-9H-pyrimido[4,5-b]indol-4-amine] | 0.0597 | 0.0343 | – | – | – |
| COc1cc2c(cc1-c1c(C)noc1C)[nH]c1nc(C)nc(Nc3cc(C4CC4)nn3-c3cn(C)cn3)c12 [Cpd. No. 14, N-(3-Cyclopropyl-1-(1-methyl-1H-imidazol-4-yl)-1H-pyrazol-5-yl)-7-(3,5-dimethylisoxazol-4-yl)-6-methoxy-2-methyl-9H-pyrimido[4,5-b]indol-4-amine] | 0.141 | 0.0197 | – | – | – |
| COc1cc2c(cc1-n1c(C)nnc1C)[nH]c1nc(C)nc(Nc3cc(C4CC4)nn3C)c12 [Cpd. No. 15, N-(3-cyclopropyl-1-methyl-1H-pyrazol-5-yl)-7-(3,5-dimethyl-4H-1,2,4-triazol-4-yl)-6-methoxy-2-methyl-9H-pyrimido[4,5-b]indol-4-amine] | 0.131 | 0.132 | – | 1.4 | – |
| COc1cc2c(cc1-c1c(C)nn(C)c1C)[nH]c1ncnc(Nc3cc(C4CC4)nn3C)c12 [Cpd. No. 21, N-(3-Cyclopropyl-1-methyl-1H-pyrazol-5-yl)-6-methoxy-7-(1,3,5-trimethyl-1H-pyrazol-4-yl)-9H-pyrimido[4,5-b]indol-4-amine] | > 1 | > 1 | – | – | – |

— patent US10307407B2, “9H-pyrimido [4,5-B] indoles as BET bromodomain inhibitors” (THE REGENTS OF THE UNIVERSITY OF MICHIGAN, priority 2015, dated 2019)
